The text below walks through data of article PMC4317927 (Cancer Science, 2014).

One data set has as its target T1, NF-κB (p50) (Homo sapiens, UniProt P19838).
T1 sequence (P19838 1-433 limits assumed): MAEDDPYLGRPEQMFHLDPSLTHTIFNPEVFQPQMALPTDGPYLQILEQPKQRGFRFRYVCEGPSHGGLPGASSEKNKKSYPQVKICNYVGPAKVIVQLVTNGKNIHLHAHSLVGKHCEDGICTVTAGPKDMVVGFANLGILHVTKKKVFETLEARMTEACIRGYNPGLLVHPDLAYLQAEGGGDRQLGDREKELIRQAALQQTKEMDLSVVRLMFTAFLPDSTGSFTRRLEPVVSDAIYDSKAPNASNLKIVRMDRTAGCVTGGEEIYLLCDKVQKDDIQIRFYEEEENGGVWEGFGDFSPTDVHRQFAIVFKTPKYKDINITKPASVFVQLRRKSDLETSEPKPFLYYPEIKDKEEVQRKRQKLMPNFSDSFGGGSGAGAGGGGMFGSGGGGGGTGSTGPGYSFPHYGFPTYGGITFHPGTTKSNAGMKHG
In words: DSE-FRET DNA-binding.

The target of a further data set is T2, NF-κB (p52) (Homo sapiens, UniProt Q00653).
T2 sequence (Q00653 1-454 limits assumed): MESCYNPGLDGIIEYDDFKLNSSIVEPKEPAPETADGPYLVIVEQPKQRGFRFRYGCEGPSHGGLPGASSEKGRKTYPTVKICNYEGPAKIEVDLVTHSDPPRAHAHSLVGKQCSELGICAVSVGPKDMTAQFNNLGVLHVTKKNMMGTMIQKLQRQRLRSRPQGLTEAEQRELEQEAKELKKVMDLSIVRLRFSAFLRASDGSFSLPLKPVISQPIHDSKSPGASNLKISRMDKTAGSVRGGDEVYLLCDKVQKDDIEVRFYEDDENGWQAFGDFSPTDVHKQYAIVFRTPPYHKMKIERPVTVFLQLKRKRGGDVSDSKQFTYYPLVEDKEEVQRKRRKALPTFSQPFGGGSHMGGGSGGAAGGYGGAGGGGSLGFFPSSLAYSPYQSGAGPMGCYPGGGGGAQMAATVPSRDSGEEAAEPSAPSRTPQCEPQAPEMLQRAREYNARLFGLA
In words: DSE-FRET DNA-binding.

In the next data set the target is GST-NF-kB p50 (human, UniProt P19838 1-433). In words: DSE-FRET.

A word on the IC50: it is the midpoint of a concentration-inhibition curve. Read a low IC50 as inhibition by little substance. For the molecule `O=C(NC1=CC(=O)[C@H]2O[C@H]2[C@H]1O)c1ccccc1O` [(−)-DHMEQ], the IC50 at NF-κB (p50) turned out to be 8.8 µM; at NF-κB (p52), 62.5 µM.

Consider `Cc1cc(-c2ccc(/N=N/c3ccc4c(S(=O)(=O)O)cc(S(=O)(=O)O)c(N)c4c3O)c(C)c2)ccc1/N=N/c1ccc2c(S(=O)(=O)O)cc(S(=O)(=O)O)c(N)c2c1O` [EB, Evans Blue], for which the figures for the IC50 on NF-κB (p50) and on NF-κB (p52) were 12.9 µM and 12.8 µM, respectively.

B1: NF-D1 (NF-01F/NF-14D) (dsDNA)
DNA 1: AGTTGAGGGGACTTTCCCAGGCGACTCACTATAGGCGGTGTCTCGCTCGC
DNA 2: GGGAATGGTGTGGTGCCTATAGTGAGTCGCCTGGGAAAGTCCCCTCAACT
Take B1: the “apparent K (half saturation)” value with GST-NF-kB p50 is approximately 40 nM.
